≈ marks a conversion by molar mass, not a printed value. Read-outs that look alike come from different tables or passages of the source.
Columns and labels:
Assay in all cases: Agar dilution antibacterial test (MIC)
Type in all cases: cell-based
Enterococcus faecium X66 = system: Enterococcus faecium X66
Method: (§1) Fresh overnight cultures of test bacteria were diluted to approximately 1x(10)4 cells/microliter and applied in one microliter volumes to the surfaces of the agar plates. The innoculated plates were incubated overnight at 35° C. in ambient air. Minimum inhibitory concentration (mic) endpoints were recorded as the lowest antibiotic concentrations in micrograms per milliliter that inhibited the development of visible growth on the plates. The following summarizes the results of such tests with the compounds of the examples listed above.

Serratia SE3 = system: Serratia SE3
Method: as §1

[1] = system: Staphylococcus aureus V41
Method: as §1

[2] = system: Haemophilus influenzae 76
Method: as §1

[3] = system: Staphylococcus aureus NRRL X1.1
Method: as §1

[4] = system: Enterobacter aerogenes EB17
Method: as §1

Escherichia coli EC14 = system: Escherichia coli EC14
Method: as §1

Enterobacter cloacae EB5 = system: Enterobacter cloacae EB5
Method: as §1

Salmonella X514 = system: Salmonella X514
Method: as §1

[5] = system: Klebsiella pneumoniae X68
Method: as §1

[6] = system: Staphylococcus epidermidis EPI270
Method: as §1

Salmonella 1335 = system: Salmonella 1335
Method: as §1

[7] = system: Enterobacter cloacae 265A
Method: as §1

Citro CF17 = system: Citro CF17
Method: as §1

Morg morg PR15 = system: Morg morg PR15
Method: as §1

Escherichia coli TEM = system: Escherichia coli TEM
Method: as §1

[8] = system: Klebsiella pneumoniae X26
Method: as §1

[9] = system: Staphylococcus pneumoniae Park 1
Method: as §1

[10] = system: Staphylococcus aureus X400
Method: as §1

[11] = system: Staphylococcus aureus S13E
Method: as §1

[12] = system: Enterococcus faecalis 2041
Method: as §1

Escherichia coli N10 = system: Escherichia coli N10
Method: as §1

Proteus rett C24 = system: Proteus rett C24
Method: as §1

Proteus incon PR33 = system: Proteus incon PR33
Method: as §1

Serratia X99 = system: Serratia X99
Method: as §1

[13] = system: Haemophilus influenzae C.L.
Method: as §1

[14] = system: Staphylococcus epidermidis 222
Method: as §1

[15] = system: Staphylococcus pyogenes C203
Method: as §1

[16] = system: Klebsiella pneumoniae KAE
Method: as §1

[17] = system: Enterobacter aerogenes C32
Method: as §1

Shig sonn. N9 = conditions: read-out: MIC
Method: as §1

Acom AC12 = system: Acom AC12
Method: as §1

[18] = Klebsiella aerogenes, read-out: MIC

`N[C@@H](C(=O)N[C@@H]1C(=O)N2C(C(=O)O)=C(C(F)(F)F)CC[C@H]12)c1cccc(Br)c1` [Compound 7] gave an MIC (Enterococcus faecium X66; read-out: MIC) of 16 µg/mL (≈ 34.6 µM), an MIC (Serratia SE3) of over 128 µg/mL and an MIC ([1]; read-out: MIC) of 4 µg/mL (≈ 8.65 µM). The MIC ([2]; read-out: MIC) was 1 µg/mL (≈ 2.16 µM), the MIC ([3]; NRRLX1.1, read-out: MIC) was 1 µg/mL (≈ 2.16 µM) and the MIC [4, 18] was 32 µg/mL (≈ 69.2 µM). The MIC (Escherichia coli EC14; read-out: MIC) was 4 µg/mL (≈ 8.65 µM), the MIC (Enterobacter cloacae EB5; read-out: MIC) was 64 µg/mL (≈ 138 µM) and the MIC (Salmonella X514; read-out: MIC) was 4 µg/mL (≈ 8.65 µM). The MIC ([5]; read-out: MIC) was 4 µg/mL (≈ 8.65 µM), the MIC ([6]; read-out: MIC) was 1 µg/mL (≈ 2.16 µM) and the MIC (Salmonella 1335; read-out: MIC) was 16 µg/mL (≈ 34.6 µM). It also gave an MIC ([7]; read-out: MIC) of 64 µg/mL (≈ 138 µM), an MIC (Citro CF17; read-out: MIC) of 32 µg/mL (≈ 69.2 µM) and an MIC (Morg morg PR15; read-out: MIC) of 16 µg/mL (≈ 34.6 µM). For the same compound, the MIC (Escherichia coli TEM; read-out: MIC) was 4 µg/mL (≈ 8.65 µM), the MIC ([8]; read-out: MIC) was 0.25 µg/mL (≈ 0.541 µM) and the MIC ([9]; PARK1, read-out: MIC) was 0.125 µg/mL (≈ 0.27 µM). For the same compound, the MIC ([10]; read-out: MIC) was 16 µg/mL (≈ 34.6 µM), the MIC [11] was 8 µg/mL (≈ 17.3 µM) and the MIC ([12]; read-out: MIC) was 8 µg/mL (≈ 17.3 µM). It also gave an MIC (Escherichia coli N10; read-out: MIC) of 8 µg/mL (≈ 17.3 µM), an MIC (Proteus rett C24) of 128 µg/mL (≈ 277 µM) and an MIC (Proteus incon PR33; read-out: MIC) of 8 µg/mL (≈ 17.3 µM). For the same compound, the MIC (Serratia X99; read-out: MIC) was 64 µg/mL (≈ 138 µM), the MIC ([13]; read-out: MIC) was 0.5 µg/mL (≈ 1.08 µM) and the MIC ([14]; read-out: MIC) was 1 µg/mL (≈ 2.16 µM). For the same compound, the MIC ([15]; read-out: MIC) was 0.125 µg/mL (≈ 0.27 µM), the MIC ([16]; read-out: MIC) was 16 µg/mL (≈ 34.6 µM) and the MIC [17, 18] was 16 µg/mL (≈ 34.6 µM).
With `N[C@@H](C(=O)N[C@@H]1C(=O)N2C(C(=O)O)=C(C(F)(F)F)CC[C@H]12)c1cccc(F)c1` [Compound 8] the MIC (Enterococcus faecium X66; read-out: MIC) was 64 µg/mL (≈ 159 µM), the MIC (Serratia SE3; read-out: MIC) was 64 µg/mL (≈ 159 µM) and the MIC ([1]; read-out: MIC) was 16 µg/mL (≈ 39.9 µM). For the same compound, the MIC ([2]; read-out: MIC) was 2 µg/mL (≈ 4.98 µM), the MIC ([3]; NRRLX1.1, read-out: MIC) was 2 µg/mL (≈ 4.98 µM) and the MIC [4, 18] was 8 µg/mL (≈ 19.9 µM). It also gave an MIC (Escherichia coli EC14; read-out: MIC) of 4 µg/mL (≈ 9.97 µM), an MIC (Enterobacter cloacae EB5; read-out: MIC) of 16 µg/mL (≈ 39.9 µM) and an MIC (Salmonella X514; read-out: MIC) of 2 µg/mL (≈ 4.98 µM). For the same compound, the MIC ([5]; read-out: MIC) was 2 µg/mL (≈ 4.98 µM), the MIC ([6]; read-out: MIC) was 4 µg/mL (≈ 9.97 µM) and the MIC (Salmonella 1335; read-out: MIC) was 4 µg/mL (≈ 9.97 µM). For the same compound, the MIC ([7]; read-out: MIC) was 32 µg/mL (≈ 79.7 µM), the MIC (Citro CF17; read-out: MIC) was 16 µg/mL (≈ 39.9 µM) and the MIC (Morg morg PR15; read-out: MIC) was 32 µg/mL (≈ 79.7 µM). The MIC (Escherichia coli TEM; read-out: MIC) was 2 µg/mL (≈ 4.98 µM), the MIC (Shig sonn. N9) was 2 µg/mL (≈ 4.98 µM) and the MIC ([8]; read-out: MIC) was 2 µg/mL (≈ 4.98 µM). For the same compound, the MIC ([9]; PARK1, read-out: MIC) was 0.25 µg/mL (≈ 0.623 µM), the MIC ([10]; read-out: MIC) was 64 µg/mL (≈ 159 µM) and the MIC [11] was 32 µg/mL (≈ 79.7 µM). The MIC ([12]; read-out: MIC) was 32 µg/mL (≈ 79.7 µM), the MIC (Escherichia coli N10; read-out: MIC) was 4 µg/mL (≈ 9.97 µM) and the MIC (Proteus rett C24; Proteus rett C24, read-out: MIC) was 16 µg/mL (≈ 39.9 µM). It also gave an MIC (Proteus incon PR33; read-out: MIC) of 16 µg/mL (≈ 39.9 µM), an MIC (Serratia X99; read-out: MIC) of 32 µg/mL (≈ 79.7 µM) and an MIC ([13]; read-out: MIC) of 2 µg/mL (≈ 4.98 µM). It also gave an MIC ([14]; read-out: MIC) of 4 µg/mL (≈ 9.97 µM), an MIC ([15]; read-out: MIC) of 0.06 µg/mL (≈ 0.15 µM) and an MIC ([16]; read-out: MIC) of 16 µg/mL (≈ 39.9 µM). The MIC [17, 18] was 16 µg/mL (≈ 39.9 µM).
`NC(C(=O)N[C@@H]1C(=O)N2C(C(=O)O)=C(C(F)(F)F)CC[C@H]12)c1cccc(C(F)(F)F)c1` (stereo partly drawn) [Compound 9, [6R,7S]-7-β-[D-α-(amino)-3-trifluoromethylphenylacetylamino]-3-trifluoromethyl-1-carba-1-carba-1-dethia3-cephem-4-carboxylic acid] gave an MIC (Enterococcus faecium X66) of 32 µg/mL (≈ 70.9 µM), an MIC (Serratia SE3) of over 128 µg/mL and an MIC [1] of 4 µg/mL (≈ 8.86 µM). The MIC [2] was 1 µg/mL (≈ 2.22 µM), the MIC [3] was 2 µg/mL (≈ 4.43 µM) and the MIC [4] was 128 µg/mL (≈ 284 µM). The MIC (Escherichia coli EC14) was 8 µg/mL (≈ 17.7 µM), the MIC (Enterobacter cloacae EB5) was 4 µg/mL (≈ 8.86 µM) and the MIC (Salmonella X514) was 32 µg/mL (≈ 70.9 µM). For the same compound, the MIC [5] was 16 µg/mL (≈ 35.5 µM), the MIC [6] was 4 µg/mL (≈ 8.86 µM) and the MIC (Salmonella 1335) was 64 µg/mL (≈ 142 µM). For the same compound, the MIC [7] was 128 µg/mL (≈ 284 µM), the MIC (Citro CF17) was 128 µg/mL (≈ 284 µM) and the MIC (Morg morg PR15) was 32 µg/mL (≈ 70.9 µM). The MIC (Acom AC12) was 32 µg/mL (≈ 70.9 µM), the MIC (Escherichia coli TEM) was 16 µg/mL (≈ 35.5 µM) and the MIC [8] was 1 µg/mL (≈ 2.22 µM). The MIC [9] was “.125 µg/mL”, the MIC [10] was 16 µg/mL (≈ 35.5 µM) and the MIC [11] was 16 µg/mL (≈ 35.5 µM). For the same compound, the MIC [12] was 16 µg/mL (≈ 35.5 µM), the MIC (Escherichia coli N10) was 32 µg/mL (≈ 70.9 µM) and the MIC (Proteus rett C24; Proteus rett C24) was 64 µg/mL (≈ 142 µM). The MIC (Proteus incon PR33) was 32 µg/mL (≈ 70.9 µM), the MIC (Serratia X99) was 128 µg/mL (≈ 284 µM) and the MIC [13] was 1 µg/mL (≈ 2.22 µM). The MIC [14] was 1 µg/mL (≈ 2.22 µM), the MIC [15] was 6 µg/mL (≈ 13.3 µM) and the MIC [16] was 64 µg/mL (≈ 142 µM). The MIC [17] was 128 µg/mL (≈ 284 µM).

— patent US5099015A, “Trifluoromethyl 1-carba(1-dethia)cephems” (Eli Lilly and Company, priority 1991, dated 1992)
